Assay results: ChEMBL document CHEMBL1201862, “PubChem BioAssay data set” (2004)
The source made the active and inactive calls.

How the values were obtained:
[1] = target: T1, Bcl-2-related protein A1 (Mus musculus, UniProt Q07440); assay: Bfl-1 binding inhibitors, SAR follow-up, biochemical, fluorescence polarization (AID 1070)
T1 sequence (Q07440 whole entry): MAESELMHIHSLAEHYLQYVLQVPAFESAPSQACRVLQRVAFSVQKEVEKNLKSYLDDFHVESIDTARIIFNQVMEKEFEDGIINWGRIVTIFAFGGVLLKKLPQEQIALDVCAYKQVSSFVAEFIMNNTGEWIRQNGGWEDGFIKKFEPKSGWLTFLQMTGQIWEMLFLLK

[2] = target: Glyceraldehyde-3-phosphate dehydrogenase (Homo sapiens, UniProt P04406)
[3] = target: T1, Bcl-2-related protein A1; assay: Bfl-1 inhibitors blocking BH3 peptide binding, confirmation, biochemical, TR-FRET, mouse Bfl-1 (AID 621);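 further: TR-FRET binding of GST-Bfl-1 to FITC-labelled Bid peptide via terbium antibody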
[4] = system: HT-1080; assay: cytotoxicity in HT1080 fibrosarcoma cells, cell-based, fluorescence readout (AID 620); type: functional; conditions: Homo sapiens
[5] = target: Luciferin 4-monooxygenase (Photinus pyralis, UniProt P08659); assay: Counter Screen for Luciferase-based Assay Positives. [Related pubchem assays: 620, 618, 411 ]
[6] = target: Induced myeloid leukemia cell differentiation protein Mcl-1 (Homo sapiens, UniProt Q07820); type: functional
[7] = inhibitors of SNCA 5'UTR-driven reporter translation, confirmation, H4 neuroglioma cells, luminescence (AID 1988); type: functional, cell-based
[8] = system: BJ; assay: cytotoxicity toward BJ-TERT-LT-ST fibroblasts, dose response, cell-based, RAS-independent, luminescence (AID 1935); type: functional; conditions: Homo sapiens;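 further: BJ fibroblasts immortalized with TERT plus LT and ST oncogenes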
[9] = cytotoxicity toward DRD oncogenic fibroblasts, dose response, cell-based, non-viral oncogenic, luminescence (AID 1934); type: functional; conditions: Homo sapiens
[10] = inhibitors of firefly luciferase expression or activity, dose response, H4 neuroglioma cells, luminescence (AID 1990); type: functional, cell-based
[11] = system: HeLa; assay: Cytotoxicity counterscreen assay for transcriptional activators of heat shock protein 70 (Hsp70). [Related pubchem assays: 1203, 1252 ]; type: functional; conditions: Homo sapiens
[12] = system: BJ; assay: cells; type: functional, cell-based; conditions: Homo sapiens
[13] = A Cell Based Secondary Assay To Explore Cytotoxicity of Compounds that Sensitize Mycobacterium Tuberculosis to Beta-Lactam Antibiotics.; type: functional
[14] = Luminescence Cell-Based Dose Response HTS to Identify Inhibitors of 5'UTR Stem-Loop Driven Prion Protein mRNA Translation in H4 Neuroglioblastoma Cells. [Related pubchem assays: 1827 (Project Summary), 1813 (Primary HTS)]; type: functional
[15] = system: BJ; assay: cytotoxicity toward BJ-TERT fibroblasts, dose response, cell-based, RAS-independent, luminescence (AID 1933); type: functional; conditions: Homo sapiens
[16] = cytotoxicity in KRAS-transformed pancreatic duct cells, primary screen, cell-based, fluorescence, HTS (AID 431); type: functional; conditions: Homo sapiens;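 further: cell line used: HPDE-C7K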
[17] = Luminescence Cell-Based Dose Retest to Confirm Inhibitors of Cancer Stem Cells. [Related pubchem assays (depositor defined):AID2717, AID2721]; type: functional; conditions: Homo sapiens
[18] = cytotoxicity in HPDE-C7 cells, cell-based, fluorescence, HTS (AID 430); type: functional; conditions: Homo sapiens
[19] = system: INS1; assay: beta cell apoptosis inhibitors, cytokine rescue, dose response, luminescence, retest (AID 449756); type: functional, cell-based; conditions: Rattus norvegicus;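 further: cell death triggered by IL-1 beta plus TNF-alpha plus IFN-gamma mixture; protective hits raise ATP signal compared with cytokine alone wells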
[20] = target: Polyadenylate-binding protein 1 (Homo sapiens, UniProt P11940); assay: PABP poly(A) RNA binding inhibitors, primary screen, biochemical, fluorescence polarization, uHTS (AID 2014)
[21] = target: Eukaryotic translation initiation factor 4H (Homo sapiens, UniProt Q15056); assay: human eIF4H binding inhibitors, primary screen, translation initiation inhibitor project, biochemical, uHTS, fluorescence polarization (AID 2012)
[22] = system: HeLa; assay: HeLa cell cytotoxicity, dose response, cytotoxicity control, 24 h, cherry-picked samples (AID 504726); type: functional, cell-based; conditions: Homo sapiens;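 further: potency for cytotoxicity as loss of luminescence signal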
[23] = cells
[24] = HEp-2 cell cytotoxicity, dose response, cytotoxicity control for RSV inhibitor project, HTS (AID 2410); type: functional; conditions: human respiratory syncytial virus
[25] = Counterscreen for IDE inhibitors: Luminescence-based cell-based high throughput dose response assay to identify compounds that are cytotoxic to HEK cells. [Related pubchem assays: 434962 (Primary screen (IDE inhibitors in singlicate)), 449730 (Counterscreen (Cytotoxicity in triplicate)), 435028 (Confirmation (IDE inhibitors in triplicate)) …; type: functional; conditions: HEK293
[26] = target: Insulin-degrading enzyme (Homo sapiens, UniProt P14735); assay: Dose Response: Fluorescence polarization-based cell-based high throughput dose response assay for inhibitors of insulin-degrading enzyme (IDE). [Related pubchem assays: 434962 (Primary screen (IDE inhibitors in singlicate)), 449730 (Counterscreen (Cytotoxicity in triplicate)), 435028 (Confirmation (IDE inhibitors in triplicate)), 434984 (Summary …; type: functional
[27] = system: Staphylococcus aureus; assay: Inhibitors of Bacterial Quorum Sensing Structure Activity Relationship (SAR) Analysis: Dose Response Assay. [Related pubchem assays: 700, 527 ]; type: functional, organism-based
[28] = target: T2, RNA-binding protein pos-1 (Caenorhabditis elegans, UniProt G5EF15); assay: inhibitors of POS-1/mex-3 RNA binding, dose response, biochemical, fluorescence polarization (AID 1964);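 further: purified POS-1 fused to maltose binding protein made in E. coli; potency of compounds blocking POS-1 binding to fluorescent RNA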
T2 sequence (G5EF15 whole entry): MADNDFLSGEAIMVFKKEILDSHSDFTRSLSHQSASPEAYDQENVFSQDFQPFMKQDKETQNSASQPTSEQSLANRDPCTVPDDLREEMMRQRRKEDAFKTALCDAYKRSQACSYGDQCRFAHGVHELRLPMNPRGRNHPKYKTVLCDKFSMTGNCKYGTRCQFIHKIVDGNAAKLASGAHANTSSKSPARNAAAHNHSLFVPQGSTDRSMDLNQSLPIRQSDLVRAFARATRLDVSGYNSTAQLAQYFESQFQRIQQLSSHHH

[29] = target: T3, Zinc finger protein mex-5 (Caenorhabditis elegans, UniProt Q9XUB2); assay: MEX-5/TCR-2 RNA interaction inhibitors, dose response, biochemical, C. elegans, fluorescence polarization (AID 1960)
T3 sequence (Q9XUB2 whole entry): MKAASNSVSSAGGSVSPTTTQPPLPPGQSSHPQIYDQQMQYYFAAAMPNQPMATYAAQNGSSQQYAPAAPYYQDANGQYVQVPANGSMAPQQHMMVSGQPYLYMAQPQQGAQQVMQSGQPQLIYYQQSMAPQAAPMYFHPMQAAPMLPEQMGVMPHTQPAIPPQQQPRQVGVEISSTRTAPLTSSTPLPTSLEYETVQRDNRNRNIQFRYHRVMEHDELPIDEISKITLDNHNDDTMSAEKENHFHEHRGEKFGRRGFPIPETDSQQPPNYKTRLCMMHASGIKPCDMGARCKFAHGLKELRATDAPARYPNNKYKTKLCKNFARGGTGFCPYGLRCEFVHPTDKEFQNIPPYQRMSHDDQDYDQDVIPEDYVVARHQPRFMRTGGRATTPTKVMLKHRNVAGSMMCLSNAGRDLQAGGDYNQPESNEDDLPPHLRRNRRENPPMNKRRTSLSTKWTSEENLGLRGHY

[30] = target: T4, Aryl hydrocarbon receptor (Homo sapiens, UniProt P35869); assay: Luminescence-based cell-based high throughput dose response assay for activators of the Aryl Hydrocarbon Receptor (AHR). [Related pubchem assays: 2796 (Primary screen (AHR activators in singlicate)), 2845 (Confirmation screen (AHR activators in triplicate)), 434939 (Counterscreen (PXR activators in triplicate)), 2804 (Summary (AHR activators))]; type: ADME
T4 sequence (P35869 whole entry): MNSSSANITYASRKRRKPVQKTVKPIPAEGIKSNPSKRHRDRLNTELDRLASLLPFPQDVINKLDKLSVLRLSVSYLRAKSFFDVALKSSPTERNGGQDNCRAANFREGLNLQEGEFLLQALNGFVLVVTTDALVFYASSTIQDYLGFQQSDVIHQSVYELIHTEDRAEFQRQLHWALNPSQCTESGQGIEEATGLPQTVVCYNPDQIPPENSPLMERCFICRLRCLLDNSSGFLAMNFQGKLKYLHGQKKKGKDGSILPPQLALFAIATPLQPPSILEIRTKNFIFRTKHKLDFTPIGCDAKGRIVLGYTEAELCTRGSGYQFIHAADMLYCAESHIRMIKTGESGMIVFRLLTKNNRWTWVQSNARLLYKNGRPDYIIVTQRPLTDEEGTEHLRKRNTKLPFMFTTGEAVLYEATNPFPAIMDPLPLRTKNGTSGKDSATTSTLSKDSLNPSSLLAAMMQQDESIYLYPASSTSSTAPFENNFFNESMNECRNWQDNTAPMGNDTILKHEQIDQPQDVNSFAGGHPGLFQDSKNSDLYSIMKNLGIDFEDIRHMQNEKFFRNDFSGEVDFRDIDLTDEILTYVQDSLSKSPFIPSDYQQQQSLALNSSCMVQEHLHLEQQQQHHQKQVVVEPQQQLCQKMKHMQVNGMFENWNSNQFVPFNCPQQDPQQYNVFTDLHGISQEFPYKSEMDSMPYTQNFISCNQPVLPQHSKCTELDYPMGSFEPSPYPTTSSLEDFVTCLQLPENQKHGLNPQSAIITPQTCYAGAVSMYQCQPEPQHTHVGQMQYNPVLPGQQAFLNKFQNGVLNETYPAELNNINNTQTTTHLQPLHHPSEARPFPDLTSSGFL

[31] = luciferase reporter signal reduction – luminescence, H4-C neuroglioblastoma cells, dose response (AID 2458); type: functional, cell-based;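 further: H4 neuroglioblastoma cells stably carrying a luciferase reporter gene fusion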
[32] = target: Albumin (Bos taurus, UniProt P02769); assay: Counterscreen for inhibitors of T-cell receptor (TCR)-CD3 interaction: Fluorescence-based biochemical high throughput dose response assay to identify inhibitors of T-cell receptor (TCR)-CD3 interaction using a TAMRA-labeled BSA probe.; type: functional
[33] = inhibitors of SNCA 5'UTR-driven translation, confirmation, luminescence, H4 neuroglioblastoma cells, dose confirmation (AID 2454); type: functional, cell-based;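 further: H4 neuroglioblastoma cells carrying an alpha-synuclein 5'UTR luciferase reporter; potency for inhibition of the luciferase signal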
[34] = cells; type: functional, cell-based
[35] = system: HEK293; assay: inhibitors of LMP1-driven NF-kB reporter, dose response, cell-based, HEK293, luciferase, cherry-pick (AID 588343); type: functional; conditions: Homo sapiens

Chain of Polyadenylate-binding protein 1 (P11940 whole entry): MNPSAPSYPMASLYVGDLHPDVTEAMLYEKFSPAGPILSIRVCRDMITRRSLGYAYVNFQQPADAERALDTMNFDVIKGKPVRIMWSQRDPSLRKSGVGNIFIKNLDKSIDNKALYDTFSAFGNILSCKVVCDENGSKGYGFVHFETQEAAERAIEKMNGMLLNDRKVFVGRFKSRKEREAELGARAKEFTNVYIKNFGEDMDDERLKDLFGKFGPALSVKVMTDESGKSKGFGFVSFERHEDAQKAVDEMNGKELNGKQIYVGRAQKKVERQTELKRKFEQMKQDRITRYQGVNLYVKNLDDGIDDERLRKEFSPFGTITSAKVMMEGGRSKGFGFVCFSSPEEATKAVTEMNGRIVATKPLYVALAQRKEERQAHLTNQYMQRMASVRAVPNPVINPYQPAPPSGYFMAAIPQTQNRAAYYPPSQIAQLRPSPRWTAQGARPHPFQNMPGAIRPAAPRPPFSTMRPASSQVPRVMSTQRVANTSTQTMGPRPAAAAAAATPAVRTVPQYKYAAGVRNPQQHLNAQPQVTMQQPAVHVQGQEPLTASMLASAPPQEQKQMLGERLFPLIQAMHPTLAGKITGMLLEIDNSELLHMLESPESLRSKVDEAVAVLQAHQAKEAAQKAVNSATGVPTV
Chain of Luciferin 4-monooxygenase (P08659 whole entry): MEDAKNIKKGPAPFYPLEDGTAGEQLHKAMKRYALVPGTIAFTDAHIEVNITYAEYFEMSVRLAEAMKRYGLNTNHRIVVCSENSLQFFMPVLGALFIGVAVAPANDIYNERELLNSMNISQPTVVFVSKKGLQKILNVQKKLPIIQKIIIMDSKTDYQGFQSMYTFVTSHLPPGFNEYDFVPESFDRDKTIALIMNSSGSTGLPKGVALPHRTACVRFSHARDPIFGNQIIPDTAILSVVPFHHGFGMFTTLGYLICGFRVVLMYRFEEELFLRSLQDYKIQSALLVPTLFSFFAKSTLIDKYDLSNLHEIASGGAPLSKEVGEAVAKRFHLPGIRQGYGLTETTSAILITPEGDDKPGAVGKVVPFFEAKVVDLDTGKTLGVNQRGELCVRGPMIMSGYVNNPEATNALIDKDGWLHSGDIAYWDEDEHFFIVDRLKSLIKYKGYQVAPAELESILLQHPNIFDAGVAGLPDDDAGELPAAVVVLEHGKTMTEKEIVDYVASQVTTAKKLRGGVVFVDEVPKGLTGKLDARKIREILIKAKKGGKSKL
Chain of Insulin-degrading enzyme (P14735 whole entry): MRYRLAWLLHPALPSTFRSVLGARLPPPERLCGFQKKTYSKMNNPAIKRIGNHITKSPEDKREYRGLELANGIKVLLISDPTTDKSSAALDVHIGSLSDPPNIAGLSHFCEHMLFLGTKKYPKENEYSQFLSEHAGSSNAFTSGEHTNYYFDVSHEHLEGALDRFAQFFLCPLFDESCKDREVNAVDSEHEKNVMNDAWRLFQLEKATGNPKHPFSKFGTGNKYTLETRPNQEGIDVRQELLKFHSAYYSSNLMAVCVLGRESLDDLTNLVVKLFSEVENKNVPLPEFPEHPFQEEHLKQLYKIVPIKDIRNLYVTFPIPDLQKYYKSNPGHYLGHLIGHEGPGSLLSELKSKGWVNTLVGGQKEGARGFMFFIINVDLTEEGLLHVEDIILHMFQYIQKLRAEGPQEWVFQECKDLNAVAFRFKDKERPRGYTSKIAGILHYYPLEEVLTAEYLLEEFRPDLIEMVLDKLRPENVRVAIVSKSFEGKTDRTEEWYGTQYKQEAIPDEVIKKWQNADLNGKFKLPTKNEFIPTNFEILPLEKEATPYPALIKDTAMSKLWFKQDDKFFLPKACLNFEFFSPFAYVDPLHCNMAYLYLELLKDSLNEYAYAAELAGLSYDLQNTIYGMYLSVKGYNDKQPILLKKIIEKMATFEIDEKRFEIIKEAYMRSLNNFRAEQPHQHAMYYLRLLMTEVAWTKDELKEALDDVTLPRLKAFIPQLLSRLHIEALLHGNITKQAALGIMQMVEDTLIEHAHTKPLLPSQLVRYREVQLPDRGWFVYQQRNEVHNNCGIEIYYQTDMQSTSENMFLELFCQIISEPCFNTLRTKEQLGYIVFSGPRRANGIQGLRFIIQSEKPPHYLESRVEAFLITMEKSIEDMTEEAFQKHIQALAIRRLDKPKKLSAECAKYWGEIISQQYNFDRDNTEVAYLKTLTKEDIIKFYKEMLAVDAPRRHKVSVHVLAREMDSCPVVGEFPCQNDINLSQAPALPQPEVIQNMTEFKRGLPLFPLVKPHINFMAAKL
Chain of Induced myeloid leukemia cell differentiation protein Mcl-1 (Q07820 whole entry): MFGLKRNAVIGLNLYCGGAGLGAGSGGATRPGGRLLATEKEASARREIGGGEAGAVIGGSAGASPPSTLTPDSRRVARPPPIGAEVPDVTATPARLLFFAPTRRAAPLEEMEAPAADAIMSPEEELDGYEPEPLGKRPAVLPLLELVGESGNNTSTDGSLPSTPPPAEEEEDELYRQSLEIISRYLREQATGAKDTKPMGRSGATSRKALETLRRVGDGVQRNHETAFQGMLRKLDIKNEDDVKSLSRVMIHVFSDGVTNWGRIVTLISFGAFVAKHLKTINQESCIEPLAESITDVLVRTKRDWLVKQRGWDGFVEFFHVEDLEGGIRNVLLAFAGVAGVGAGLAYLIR
Chain of Glyceraldehyde-3-phosphate dehydrogenase (P04406 whole entry): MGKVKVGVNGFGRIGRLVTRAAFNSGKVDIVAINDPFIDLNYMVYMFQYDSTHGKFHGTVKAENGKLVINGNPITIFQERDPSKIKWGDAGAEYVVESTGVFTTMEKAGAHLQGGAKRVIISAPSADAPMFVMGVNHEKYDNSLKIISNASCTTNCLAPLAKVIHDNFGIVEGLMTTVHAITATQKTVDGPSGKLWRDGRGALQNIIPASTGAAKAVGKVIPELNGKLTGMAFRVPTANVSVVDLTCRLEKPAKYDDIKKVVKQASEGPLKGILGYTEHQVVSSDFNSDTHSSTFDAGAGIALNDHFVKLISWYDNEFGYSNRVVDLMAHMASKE
Chain of Albumin (P02769 whole entry): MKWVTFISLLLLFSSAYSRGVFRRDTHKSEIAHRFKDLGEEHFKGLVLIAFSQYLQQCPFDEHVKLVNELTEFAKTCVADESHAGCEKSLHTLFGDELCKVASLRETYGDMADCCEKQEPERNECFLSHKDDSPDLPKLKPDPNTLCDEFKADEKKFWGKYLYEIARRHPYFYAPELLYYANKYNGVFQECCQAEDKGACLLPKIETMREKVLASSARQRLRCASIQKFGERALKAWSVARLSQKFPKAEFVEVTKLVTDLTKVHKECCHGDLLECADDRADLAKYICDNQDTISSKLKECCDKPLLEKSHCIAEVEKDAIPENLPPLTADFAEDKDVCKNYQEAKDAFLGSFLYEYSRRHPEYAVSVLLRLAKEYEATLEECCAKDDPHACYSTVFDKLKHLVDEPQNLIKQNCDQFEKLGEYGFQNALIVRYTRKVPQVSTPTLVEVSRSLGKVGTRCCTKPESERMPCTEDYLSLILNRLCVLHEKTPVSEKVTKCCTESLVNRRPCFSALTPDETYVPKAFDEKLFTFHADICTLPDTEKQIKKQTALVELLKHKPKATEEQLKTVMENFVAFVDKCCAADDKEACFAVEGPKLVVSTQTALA

O=C1C(Cl)=C(N2CCN(Cc3ccc4c(c3)OCO4)CC2)C(=O)N1c1ccc(Cl)c(Cl)c1
IC50 [1]: 4.07 µM (active)
IC50 [2]: > 100 µM (not active)
IC50 [3]: 2.14 µM (active)

O=C(Nc1ccc2c(c1)OCCO2)c1cncc(Br)c1
EC50 [4]: > 50 µM (not active)
EC50 [5]: 12.1 µM (active)

CC(OC(=O)c1cccc(N2C(=O)c3ccccc3C2=O)c1)C(=O)Nc1ccc(N(C)C)cc1 (configuration not stated)
IC50 [6]: 6.19 µM (not active)

C=CCSc1nccc(-c2nn(-c3ccc(C)cc3)ccc2=O)n1
EC50 [7]: 7.52 µM (active)
EC50 [8]: 90.2 µM (active)
EC50 [9]: 3.51 µM (inconclusive)
EC50 [10]: 9.46 µM (active)
CC50 [11]: > 33 µM (not active)
EC50 [12]: 111 µM (active)
CC50 [13]: 16.7 µM (active)
EC50 [14]: > 120 µM (not active)
EC50 [15]: 15.6 µM (active)

Cc1nc2ccccc2n1-c1nc(-c2ccco2)cc(C(F)(F)F)n1
EC50 [7]: 5.41 µM (active)
EC50 [8]: 2.38 µM (inconclusive)
EC50 [9]: 2.85 µM (active)
EC50 [10]: > 120 µM (not active)
EC50 [16]: 3.09 µM (active)
AC50 [17]: 0.82 µM (active)
EC50 [18]: 2.79 µM (active)
AC50 [19]: 1.44 µM (active)
EC50 [12]: 23.3 µM (inconclusive)
EC50 [14]: 9.22 µM (active)
EC50 [15]: 1.28 µM (active)

C[n+]1ccccc1/C=C/c1ccc(F)c(F)c1
IC50 [20]: 4.32 µM (active)
IC50 [21]: 97.9 µM (active)

Cc1cc(C(F)(F)F)nc(S(C)(=O)=O)n1
IC50 [1]: > 100 µM (not active)
IC50 [2]: > 100 µM (not active)
IC50 [3]: > 100 µM (not active)

Oc1nc(S)nc2c1C(c1ccc(Br)cc1)c1c(O)nc(S)nc1O2
AC50 [22]: > 350 µM (inactive)

CCCOc1c(Br)cc(C(=O)NCC)cc1OC
CC50 [11]: > 99 µM (not active)

CC1=C(C(=O)OC(C)C)C(c2ccco2)NC(=O)N1 (configuration not stated)
IC50 [20]: 42.8 µM (active)
IC50 [21]: 34.7 µM (active)

COCc1cc(C)nc(SCC(=O)Nc2ccccc2N2CCOCC2)c1C#N
IC50 [23]: 9.24 µM (active)
CC50 [24]: > 50 µM (active)

Cc1cccc(Nc2nc(N)c(C#N)c(CC#N)c2C#N)c1
IC50 [25]: 29.6 µM (not active)
IC50 [26]: > 56 µM (not active)

COc1ccc(NC(=O)C(c2cc3c(cc2[N+](=O)[O-])OCO3)N2CC(C)CC(C)C2)cc1 (configuration not stated)
IC50 [27]: 1.31 µM (active)

NS(=O)(=O)c1ccc(-c2ccc(/C=C3\SC(=O)NC3=O)o2)cc1
EC50 [28]: > 300 µM (not active)
EC50 [29]: 33.4 µM (active)
EC50 [30]: 0.237 µM (active)

CC(=O)N(C(C)=O)c1nc(-c2ccccc2)cn1/N=C/c1ccccc1
IC50 [25]: 20 µM (not active)
IC50 [26]: > 55.9 µM (not active)

C/C(=N\NC(=O)c1c(C)nc2ccccn12)c1ccc(O)cc1O
EC50 [7]: < 0.1 µM (active)
EC50 [31]: 0.739 µM (active)
IC50 [32]: > 94.1 µM (inactive)
AC50 [19]: 0.586 µM (active)
EC50 [14]: < 0.1 µM (active)
EC50 [33]: > 12 µM (inconclusive)
EC50 [34]: 0.901 µM (active)

C/C(=N/NC(=O)c1cc(C2CC2)[nH]n1)c1cccs1
EC50 [4]: > 50 µM (not active)
AC50 [35]: 1.63 µM (active)
EC50 [5]: > 100 µM (not active)

CCO/C(O)=C1\C(C)=NC2=C(C(=O)CC(C)(C)C2)C1c1ccc2c(c1)CCCN2C (configuration not stated)
IC50 [6]: 1.65 µM (not active)

CC(=O)O[C@@H]1/C=C/[C@](C)(O)C[C@@H](C)C/C=C/[C@H]2[C@@H]3O[C@]3(C)[C@@H](C)[C@H]3[C@H](Cc4ccccc4)NC(=O)[C@@]312 [EPOXYCYTOCHALASIN H]
EC50 [7]: < 0.1 µM (active)
EC50 [31]: 0.431 µM (active)
EC50 [10]: < 0.1 µM (active)
EC50 [14]: < 0.1 µM (active)
EC50 [33]: 0.403 µM (active)
EC50 [34]: 0.608 µM (active)
